In article PMC7931226 (Pharmacology Research & Perspectives, 2021):
Blank lines part the entries; values can stand above or below the molecule they belong to.

Legend:
[1] = Elacridar plasma and brain exposure, constant infusion in rats; format: in vivo, Sprague Dawley rats; details: rat; for concentration at 4 h: Sprague Dawley, intravenous
[2] = Rat plasma protein binding; format: in vitro ADME
Tolerability in rats = format: in vivo
MDCK-BCRP cells = details: range of substrates, well documented (ref not given); cited from earlier work
Caco-2 cells = details: range of substrates, well documented (ref not given); cited from earlier work
[3] = test system: P-gp and Bcrp (rat, blood-brain barrier); assay: In vivo efflux ratio; set-up: species or system Sprague Dawley rats; details: Sprague Dawley, intravenous, with elacridar 8.9 mg/hr/kg, 4.5-hour constant infusion
BCRP = BCRP knockout; cited from earlier work
[4] = target: T1, Bcrp in the gut and biliary compartments (Rattus norvegicus, UniProt Q80W57); assay: Oral PK of BCRP substrates with constant infusion of elacridar; format: in vivo; details: oral substrate with constant infusion of elacridar
T1 sequence (Q80W57 1-657): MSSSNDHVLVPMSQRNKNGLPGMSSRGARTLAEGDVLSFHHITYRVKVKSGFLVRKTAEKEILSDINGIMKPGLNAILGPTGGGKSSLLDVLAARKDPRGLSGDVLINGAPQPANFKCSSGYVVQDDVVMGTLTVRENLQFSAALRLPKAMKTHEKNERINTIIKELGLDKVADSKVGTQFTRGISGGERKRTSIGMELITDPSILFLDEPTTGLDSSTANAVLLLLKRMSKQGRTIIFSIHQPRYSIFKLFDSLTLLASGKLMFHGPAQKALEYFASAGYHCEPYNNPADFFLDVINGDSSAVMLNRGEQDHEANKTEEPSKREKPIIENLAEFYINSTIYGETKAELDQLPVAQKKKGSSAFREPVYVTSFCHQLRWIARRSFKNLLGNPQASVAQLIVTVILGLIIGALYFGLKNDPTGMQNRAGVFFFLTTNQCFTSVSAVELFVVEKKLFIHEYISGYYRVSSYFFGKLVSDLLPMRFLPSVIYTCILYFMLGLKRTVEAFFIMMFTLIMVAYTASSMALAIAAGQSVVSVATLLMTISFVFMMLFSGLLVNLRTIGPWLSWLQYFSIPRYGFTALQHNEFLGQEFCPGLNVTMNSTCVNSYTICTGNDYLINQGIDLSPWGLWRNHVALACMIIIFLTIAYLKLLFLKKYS

[5] = Valspodar plasma and brain exposure, constant infusion or IV bolus in rats; format: in vivo, Sprague Dawley rats; details: rat; for concentration at 4 h: Sprague Dawley, plasma, intravenous
rat P-gp at the BBB = assay: In vivo efflux ratio; set-up: species or system Sprague Dawley rats; details: constant infusion, inhibition of P-gp at the BBB
P-gp = details: ref 26 (Smith et al, 1998); cited from earlier work
[6] = constant infusion, based upon 3x the half-life

- concentration at 4 h ([1]; brain, 8.9 mg/hr/kg, total drug in brain, elacridar 8.9 mg/hr/kg constant infusion): > 45000 ng/g
- concentration at 4 h ([1]; plasma, 8.9 mg/hr/kg, Elacridar (total plasma), elacridar 8.9 mg/hr/kg, 4.5-hour constant infusion, mean): > 2000 ng/mL
- concentration at 4 h ([1]; plasma, 8.9 mg/hr/kg, steady state free plasma, elacridar 8.9 mg/hr/kg constant infusion (maximum)): 35 to 70 nM
- concentration at 4 h ([1]; plasma, free plasma exposure, range over doses, 0.009 to 8.9 mg/hr/kg constant infusion, 1.5% rat plasma free fraction): 0.025 to 49 ng/mL
- concentration at 4 h ([1]; plasma, total plasma exposure (mean), range over doses, 0.009 to 8.9 mg/hr/kg constant infusion over 4.5 hours): 1.6 to 3270 ng/mL
- time to steady state in plasma [1, 6]: ≤ 2.5 h
- free in rat plasma (free fraction) ([2]; well known (ref 27), confirmed in-house): 1.5%
Structure (SMILES): COc1cc2c(cc1OC)CN(CCc1ccc(NC(=O)c3cccc4c(=O)c5cccc(OC)c5[nH]c34)cc1)CC2 [elacridar, 9,10‐dihydro‐5‐methoxy‐9‐oxo‐N‐[4‐[2‐(1,2,3,4‐tetrahydro‐6,7‐dimethoxy‐2‐isoquinolinyl)ethyl]phenyl]‐4‐acridine‐carboxamide]
- side effects (Tolerability in rats; any study conditions up to 8-hour duration): no negative side effects were observed
- IC50 (MDCK-BCRP cells): 300 nM
- IC50 (Caco-2 cells): 600 nM

- efflux ratio at 4 h [3]: 5.4
Structure (SMILES): COc1ccc(Cl)cc1C(=O)NCCc1ccc(S(=O)(=O)NC(=O)NC2CCCCC2)cc1 [glyburide]
- increase in placental tissue concentration (BCRP): 2.5 fold

- increase in liver concentrations ([4]; 8 hours post-dose): 4 fold
- half-life ([4]; up to 8 hours post-dose): significant increase
Structure (SMILES): O=C(O)c1cc(/N=N/c2ccc(S(=O)(=O)Nc3ccccn3)cc2)ccc1O [sulfasalazine]

- clearance (calculated t1/2 and liver concentrations) [4]: not impacted
Structure (SMILES): CC[C@@]1(O)C(=O)OCc2c1cc1n(c2=O)Cc2cc3c(CN(C)C)c(O)ccc3nc2-1 [topotecan]

- concentration at 4 h ([5]; 8 mg/hr/kg, free plasma exposure, maximum soluble dose 8 mg/hr/kg constant infusion): 2140 nM
- concentration at 4 h ([5]; free plasma exposure (mean), range over doses, 0.09 to 8 mg/hr/kg constant infusion over 4.5 hours, rat plasma binding = 92%): 32 to 2590 ng/mL
- time to steady state in plasma [5, 6]: ≤ 2.5 h
- rat plasma binding ([2]; mean): 92%
Structure (SMILES): C/C=C/C[C@@H](C)C(=O)[C@H]1C(=O)N[C@@H](C(C)C)C(=O)N(C)CC(=O)N(C)[C@@H](CC(C)C)C(=O)N[C@@H](C(C)C)C(=O)N(C)[C@@H](CC(C)C)C(=O)N[C@@H](C)C(=O)N[C@H](C)C(=O)N(C)[C@@H](CC(C)C)C(=O)N(C)[C@@H](CC(C)C)C(=O)N(C)[C@@H](C(C)C)C(=O)N1C [valspodar]
- minimal (lowest) efficacious dose (rat P-gp at the BBB): 0.9 mg/h/kg
- side effects (Tolerability in rats; IV bolus doses at 10 mg/kg or higher and repeat doses of 5 mg/kg or higher with less than 2 h between doses): lethargy and increased urination
- side effects (Tolerability in rats; constant infusion 0.9 mg/hr/kg and 2.7 mg/hr/kg up to 8 hours): No side effects were observed
- side effects (Tolerability in rats; constant infusion, highest dose 8 mg/hr/kg): some instances were observed
- decrease in in vitro efficacy from serum binding (P-gp): 23 fold
